Data taken from US11779600B2, “Methods of treating or preventing alzheimer's disease and associated conditions” (CEDARS-SINAI MEDICAL CENTER, priority 2016, dated 2023).

Key:
[1] = system: 6E10+-Aβ plaque; test: 6E10+-Aβ plaque burden in ADtg mouse brain sections; format: in vivo; settings: same brain sections (FIG. 11C)
Experimental: ADtg mice (10 months old) received subcutaneous injections of GA [also known as Cop-1 and Copaxone®; 100 μg in phosphate-buffered saline (PBS)] or PBS alone (control group) twice a week for 1 week and then once a week for 8 weeks. For evaluation of innate immune infiltration to the brain by flow cytometry, 10-month-old ADtg mice received subcutaneous injections of GA ([…] in PBS) or PBS alone twice a week for 1 week and then once a week for 3 weeks. At the end of the study, all mice were anaesthetized and then perfused with ice-cold PBS with 0.5 mM EDTA, after which their organs were collected and analyzed or fixed in 2.5% paraformaldehyde (Sigma-Aldrich), and cryoprotected with 30% sucrose for further histological analysis. CD115^+ monocytes from mice donors were isolated as previously reported (Koronyo et al., Brain: a journal of neurology 2015,138:2399-2422). […] For microscopic analysis, we used a Carl Zeiss Axio Imager Z1 fluorescence microscope equipped with ApoTome (Carl Zeiss MicroImaging, Inc.). […] The number and area (μm^2) of OPN+ cells, Iba1^+CD45^hi cells, GFAP^+ cells, Thio-S^+ amyloid-βplaques and 4G8^+ amyloid-βplaques were determined by examining four to six coronal sections per mouse at 150-μm intervals over an area covering both the hippocampal and cortical (including entorhinal and cingulate cortex) regions. […]

[2] = system: MΦ^BM; test: Macrophage cell length measurement; format: cell-based, mouse; settings: GA treatment (FIG. 16A-16B)
Experimental: A set of three Stealth OPN siRNAs made up of 25-bp duplex oligoribonucleotides each were used with sequences corresponding to the sense and antisense strands of OPN (Invitrogen). Equal amounts (100 nM each) of siRNAs were mixed and diluted in OptiMEM (Gibco) to finalconcentration of 100nmol/L, then transiently transfected into MΦ^BM using Lipofectamine® RNAiMAX Transfection Reagent (Invitrogen), per manufacturer's protocol. Control macrophages were transfected with Stealth RNAi™ siRNA Negative Control. MΦ^BM were incubated for 48 hours after transfection, and were used for subsequent experiments.
The long and short axes of cells were manually measured in μm from microscopic images (McWhorter et al., Proceedings of the National Academy of Sciences of the U.S. Pat. No. 2,013,110:17253-17258) using length tools in the Axiovision Rel. 4.8 software package. At least 100 cells were examined in each experiment where individual cells were assayed by microscopy.
Macrophages can acquire distinct phenotypes and biological functions depending on their microenvironment. Past studies reported that OPN promotes macrophages to switch to the anti-inflammatory M2 phenotype. The possible role of OPN in macrophage polarization towards an anti-inflammatory phenotype, which has been associated with elongated cell shape was explored. […]

Q: With glatiramer acetate [GA] as the substance, how does the “6E10+-Aβ plaque burden compared with PBS controls” value [1] read?
A: substantial reduction

Q: And the cell length increase [2]?
A: 1.3 fold
